In patent US8895037B2, “Administation of ellagic acid for the treatment of canities” (L'Oreal, priority 2006, dated 2014):

Tests used:
[1] = tested on: normal human melanocytes (NHMs); assay: Accelerated senescence induced in vitro by a chronic H2O2 stress, viability by Alamar Blue; type: cell-based; conditions: for % relative to the control / average fluorescence: Alamar Blue on D7
Method: 1-C-1. Protocol for accelerated senescence induced in vitro by a chronic H2O2 stress:
(According to O. Toussaint, E. E. Medrano and T. von Zglinicki, Experimental Gerontology 2000, 35, 927-945).
The normal human melanocytes (NHMs) were inoculated at D0 at the density of 0.8×10^4 cells/cm^2. After adhesion of the cells (3 h) the active agent studied was added to the culture medium. H2O2 (250 μM) was added to the culture medium over 1 hour, at D1, D2 and D3. In addition, the culture medium was renewed every two days without addition of stress. On D7, the number of viable cells was measured using Alamar Blue (UP669413 UPTIMA, Interchim) according to the instructions of the supplier.

[2] = tested on: normal human melanocytes (NHMs); assay: Reactive oxygen species (ROS) generated by an H2O2 stress in cultured normal human melanocytes; type: cell-based; conditions: NHM pretreated 12 h/18 h, 250 μM H2O2, fluorescence after 15 min; FIG. 1
Method: 1-A-1. Protocol for measuring the reactive oxygen species (ROS) generated by an H2O2 stress in cultured normal human melanocytes (NHMs) The normal human melanocytes (NHMs) were inoculated at D0 at the density of 4×10^4 cells/cm^2. At D1, the culture medium was replaced with the 10 μM solution of 6-carboxy-2',7'-dichlorodihydrofluorescein diacetate, di[acetoxymethyl ester] in PBS (H2DCFDA, C2938, Molecular Probes). After 20 min the H2DCFDA solution was replaced with the culture medium. The NHMs were left for 30 min before adding the H2O2 solution (250 μM). The fluorescence was measured after 15 min in a fluoroscan (excitation: 485 nm, emission: 538 nm). The compounds studied were used depending on their properties (concentration, preincubation time). N-Acetylcysteine ([…], Sigma) was used as a reference molecule. The melanocytes were pretreated, 12 h/18 h at 37° C., with the compound studied in the culture medium, before being brought into contact for 20 minutes with H2DCFDA (10 μM in PBS). […] The fluorescence was measured after 15 min in a fluoroscan (excitation: 485 nm, emission: 538 nm). The results represent the crude fluorescence data, from which the autofluorescence values of “blank” cells, expressed in fluorescence units (fu), obtained during a representative experiment, have been deducted.

[3] = (no treatment, NAC, EA), chronic H2O2 250 μM at D1, D2, D3

SMILES | % relative to the control ([1]; (Control, NAC, EA)) [%] | average fluorescence ([1]; (Control, NAC, EA)) | % relative to the control [1, 3] [%] | average fluorescence [1, 3] | viability after accelerated senescence induced by chronic H2O2 stress ([1]; NHM, H2O2 250 μM at D1, D2, D3, read on D7, FIG. 3) | reactive oxygen species induced by H2O2 (fluorescence, H2DCFDA) [2]
CC(=O)N[C@@H](CS)C(=O)O [NAC, N-Acetylcysteine, reference compound] | 106 | 8056.00 | 38 | 2869.00 | – | –
O=c1oc2c(O)c(O)cc3c(=O)oc4c(O)c(O)cc1c4c23 [ellagic acid, 2,3,7,8-tetrahydroxy(1)benzopyrano(5,4,3-CDE)(1)benzopyran-5,10-dione] | 97 | 7343.67 | 39 | 2934.00 | significant increase in viability | decrease of the reactive oxygen species
